Consider 11 compounds from patent publication US12281304B2, “Compositions and methods for treating and preventing muscular disorders and dystrophies, steroid side effects, and inflammation” (Children's National Medical Center, priority 2018, dated 2025).

The first series addresses T1, Toll-like receptor 7 (Mus musculus, UniProt P58681).
T1 construct: endogenous in cells; host or cells: RAW 264.7 murine macrophage cells
T1 sequence (P58681 27-1050): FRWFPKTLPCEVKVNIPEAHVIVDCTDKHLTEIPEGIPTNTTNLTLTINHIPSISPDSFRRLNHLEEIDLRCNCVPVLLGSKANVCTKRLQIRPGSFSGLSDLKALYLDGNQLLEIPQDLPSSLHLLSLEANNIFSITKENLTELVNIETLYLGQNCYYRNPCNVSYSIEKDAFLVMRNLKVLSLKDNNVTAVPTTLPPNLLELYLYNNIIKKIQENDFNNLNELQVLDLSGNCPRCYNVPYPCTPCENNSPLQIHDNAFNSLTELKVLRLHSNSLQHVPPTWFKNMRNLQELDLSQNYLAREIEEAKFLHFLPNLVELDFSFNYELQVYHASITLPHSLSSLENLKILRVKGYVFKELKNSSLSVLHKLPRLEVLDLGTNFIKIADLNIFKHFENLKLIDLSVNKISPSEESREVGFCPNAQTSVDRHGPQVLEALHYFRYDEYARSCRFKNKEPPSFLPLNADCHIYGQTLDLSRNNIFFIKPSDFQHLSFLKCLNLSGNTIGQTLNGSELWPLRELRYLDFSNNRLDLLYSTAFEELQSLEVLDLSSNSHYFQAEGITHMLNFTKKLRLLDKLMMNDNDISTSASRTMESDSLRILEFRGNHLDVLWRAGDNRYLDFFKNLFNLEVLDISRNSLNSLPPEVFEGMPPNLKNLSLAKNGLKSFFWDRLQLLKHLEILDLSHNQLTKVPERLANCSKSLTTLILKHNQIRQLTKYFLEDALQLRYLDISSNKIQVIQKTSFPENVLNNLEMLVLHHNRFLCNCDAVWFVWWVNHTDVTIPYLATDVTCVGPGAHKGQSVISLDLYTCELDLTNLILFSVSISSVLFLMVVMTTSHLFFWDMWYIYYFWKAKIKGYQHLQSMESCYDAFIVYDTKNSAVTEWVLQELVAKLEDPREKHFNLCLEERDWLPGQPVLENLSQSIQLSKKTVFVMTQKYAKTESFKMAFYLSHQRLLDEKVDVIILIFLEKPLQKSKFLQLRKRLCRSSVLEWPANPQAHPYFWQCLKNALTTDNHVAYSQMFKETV
Put plainly: Secreted TNF-α (ALPHA-LISA) in RAW 264.7 macrophages treated with miRNAs (TLR7 activation). The format is cell-based, murine. Particulars: RAW 264.7 cells, 5 ug RNA, 6, 24 and 48 h. The protocol: FIG. 11A-11C depict how miR-146a and miR-142-3p bind to and activate the inflammatory Toll-like receptor 7. 11A) RAW 264.7 murine macrophage cells were treated the indicated treatments for 6, 24 and 48 h: 1) negative CTRL (−)=no treatment; 2) Gardiquimod (3 ug/mL)=+control for TLR7 activation; 3) miR-146a (5 ug) sequence: […] (SEQ ID NO:70), 4) miR-142-3p (5 ug) […] (SEQ ID NO:71); 5) miR-146amut (5 ug, sequence: […] (SEQ ID NO:72)); 6) miR-142-3pmut (5 ug, sequence: […] (SEQ ID NO:73)). After the indicated timepoints, media was collected and an ALPHA-LISA was performed to measure the amount of secreted TNF-α. […] B) RAW 264.7 murine macrophage cells were treated with gardiquimod or the indicated microRNAs for 48 h, where peak activation was observed. Secreted TNF-α was assessed as in A) using an ALPHA-LISA. C) HEK 293 cells were transfected with a plasmid encoding TLR7-YFP (green) and either a Cy5-miR-146a or Cy5-miR-142-3p (red). 48 h post-transfection cells were fixed and confocal microscopy was performed using an Olympus FV-1000 at 100× magnification.
For orientation: In Alpha technology, singlet oxygen from a donor bead excites a nearby acceptor bead.
As to “miR-142-3p: microRNA, sequence uguaguguuuccuacuuuaugga (SEQ ID NO:71) (UGUAGUGUUUCCUACUUUAUGGA; listed as RNA, chemistry not given here; listed as Homo sapiens)”, the “secretion of TNF-α (TLR7 activation)” value is “activate secretion of TNF-α”.

Consider “miR-142-3pmut: uridine-deficient mutant microRNA, sequence agaagagaaaccaacaaaaugga (SEQ ID NO:73) (AGAAGAGAAACCAACAAAAUGGA; listed as RNA, chemistry not given here; listed as Homo sapiens)”, for which the “secretion of TNF-α (TLR7 activation)” value is listed as “prevents activation”.

In the case of “miR-146amut: uridine-deficient mutant microRNA, sequence agagaacagaaaaccacgggaa (SEQ ID NO:72) (AGAGAACAGAAAACCACGGGAA; listed as DNA, chemistry not given here; listed as Homo sapiens)”, the “secretion of TNF-α (TLR7 activation)” value is listed as “prevents activation”.

Another series addresses T2, TLR7 (Mus musculus, UniProt P58681).
T2 construct: endogenous in cells; host or cells: RAW 264.7 murine macrophage cells
T2 sequence (P58681 27-1050): T1 sequence (P58681 27-1050)
Put plainly: Competition of TLR7 activation by uridine-deficient mutant miRNA in RAW 264.7 cells (secreted TNF-α). In kind it is cell-based, murine. As to conditions: constant dose of parent miRNA with increasing doses of mutant, 48 hours. The protocol: A) HEK 293 cells were transfected with a plasmid encoding TLR7-YFP (green) and either a Cy5-miR-146a mutant microRNA or Cy5-miR-142-3p mutant microRNA (red) […] post-transfection cells were fixed and confocal microscopy was performed using an Olympus FV-1000 at 100× magnification. […] B) RAW 264.7 murine macrophage cells were treated with a constant dose of miR-146a with increasing doses of a uridine-deficient miR-146a mutant. 48 hours later TLR7 activation was assessed via secreted TNF-α. […] C) RAW 264.7 murine macrophage cells were treated with a constant dose of […] with increasing doses of a uridine-deficient miR-142-3pmutant. 48 hours later TLR7 activation was assessed via secreted TNF-α.
On to “miR-142-3pmut: uridine-deficient mutant microRNA, sequence agaagagaaaccaacaaaaugga (SEQ ID NO:73) (AGAAGAGAAACCAACAAAAUGGA; listed as RNA, chemistry not given here; listed as Homo sapiens)”, for which the “competition of TLR7 activation by the parent miRNA” value is “can compete away TLR7 activation”.

Consider “miR-146amut: uridine-deficient mutant microRNA, sequence agagaacagaaaaccacgggaa (SEQ ID NO:72) (AGAGAACAGAAAACCACGGGAA; listed as DNA, chemistry not given here; listed as Homo sapiens)”, for which the “competition of TLR7 activation by the parent miRNA” value is “can compete away the activation of TLR7 by miR-146a”.

Another series concerns miRNA sequences.
Assay: not given
As to conditions: known mechanism listed in Table 6; compounds will be tested; cited from earlier work.
For the compound `O=C(Nc1cccc(Br)c1)c1cccc(S(=O)(=O)N2CCCCCC2)c1` [AK-7], the Activity entry is recorded as “NAD-dependent deacetylase sirtuin 2 (SIRT2) inhibitor”.

On to `COc1cc2nc(N3CCCN(C)CC3)nc(NC3CCN(Cc4ccccc4)CC3)c2cc1OC` [BIX-01294], for which the Activity entry is recorded as “G9a histone methyltransferase/ GLP histone methyltransferase (G9a/GLP) inhibitor”.

As to `COC(=O)CNC(=O)C(=O)OC` [DMOG], the Activity result was “Prolyl hydroxylase domain- containing protein (PHD/JMJD2A) inhibitor”.

As for `CN(C)NC(=O)CCC(=O)O` [Daminozide], the Activity result was “KDM2/KDM7 JmjC subfamily of histone demethylase inhibitor”.

Consider `O=C(/C=C/c1cccnc1)NCCCCC1CCN(C(=O)c2ccccc2)CC1` [FK-866 HCI], for which the Activity entry is given as “Nicotinamide phosphoribosyl- transferase (Nampt) inhibitor”.

Turning to `O=C(O)CCNc1cc(N2CCc3ccccc3CC2)nc(-c2ccccn2)n1` [GSK-J1 (cell impermeable)], the Activity entry is reported as “Jumonji H3K27 histone demethylase (JMJD3/UTX) inhibitor”.

Turning to `Cc1ccc(-n2sc3ccccc3c2=O)cc1` [PBIT], the Activity result is reported as “Jumanji AT-rich interactive domain 1 family of lysine demethylases (JARID1) inhibitor”.

As for `N[C@@H]1C[C@H]1c1ccccc1` [Tranyl- cypromine hemisulfate], the Activity entry is reported as “Lysine-specific demethylase 1 (LSD1/BHC110) inhibitor”.
